According to PubChem BioAssay (NCI):
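Dose response: 5 concentrations. Exposure: 48 h. Format: 96-well plates. Endpoint: linear interpolation; highest concentration if not reached. The concentration for full growth arrest is given as TGI.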

Columns and labels:
Experiment in all cases: NCI-60 cell line screen, 48 h
786-0 renal = system: 786-0 renal
A498 renal = system: A498 renal
A549 NSCLC = system: A549 NSCLC
ACHN renal = system: ACHN renal
BT-549 breast = system: BT-549 breast
CAKI-1 renal = system: CAKI-1 renal
COLO 205 colon = system: COLO 205 colon
DU-145 prostate = system: DU-145 prostate
EKVX NSCLC = system: EKVX NSCLC
HCC-2998 colon = system: HCC-2998 colon
HCT-116 colon = system: HCT-116 colon
HCT-15 colon = system: HCT-15 colon
HOP-62 NSCLC = system: HOP-62 NSCLC
HOP-92 NSCLC = system: HOP-92 NSCLC
HS 578T breast = system: HS 578T breast
HT29 colon = system: HT29 colon
IGROV1 ovarian = system: IGROV1 ovarian
K-562 leukemia = system: K-562 leukemia
KM12 colon = system: KM12 colon
LOX IMVI melanoma = system: LOX IMVI melanoma
M14 melanoma = system: M14 melanoma
MALME-3M melanoma = system: MALME-3M melanoma
MCF7 breast = system: MCF7 breast
MDA-MB-231 breast = system: MDA-MB-231 breast
MDA-MB-435 = system: MDA-MB-435
MDA-N = system: MDA-N
MOLT-4 leukemia = system: MOLT-4 leukemia
NCI-H226 lung = system: NCI-H226 lung
NCI-H23 lung = system: NCI-H23 lung
NCI-H460 lung = system: NCI-H460 lung
NCI-H522 lung = system: NCI-H522 lung
NCI/ADR-RES ovarian = system: NCI/ADR-RES ovarian
OVCAR-3 ovarian = system: OVCAR-3 ovarian
OVCAR-4 ovarian = system: OVCAR-4 ovarian
OVCAR-5 ovarian = system: OVCAR-5 ovarian
OVCAR-8 ovarian = system: OVCAR-8 ovarian
PC-3 prostate = system: PC-3 prostate
RPMI-8226 leukemia = system: RPMI-8226 leukemia
RXF 393 renal = system: RXF 393 renal
SF-268 CNS = system: SF-268 CNS
SF-295 CNS = system: SF-295 CNS
SK-MEL-28 melanoma = system: SK-MEL-28 melanoma
SK-MEL-5 melanoma = system: SK-MEL-5 melanoma
SK-OV-3 ovarian = system: SK-OV-3 ovarian
SN12C renal = system: SN12C renal
SNB-19 CNS = system: SNB-19 CNS
SNB-75 CNS = system: SNB-75 CNS
SW-620 colon = system: SW-620 colon
T-47D breast = system: T-47D breast
TK-10 renal = system: TK-10 renal
U251 CNS = system: U251 CNS
UACC-257 melanoma = system: UACC-257 melanoma
UACC-62 melanoma = system: UACC-62 melanoma
UO-31 renal = system: UO-31 renal
CCRF-CEM leukemia = system: CCRF-CEM leukemia
HL-60(TB) leukemia = system: HL-60(TB) leukemia
SF-539 CNS = system: SF-539 CNS
SK-MEL-2 melanoma = system: SK-MEL-2 melanoma
SR leukemia = system: SR leukemia

Measured: TGI

N=C(N)SCCSC(=N)N
> 100 µM: 786-0 renal | A498 renal | A549 NSCLC | ACHN renal | BT-549 breast | CAKI-1 renal | COLO 205 colon | DU-145 prostate | EKVX NSCLC | HCC-2998 colon | HCT-116 colon | HCT-15 colon | HOP-62 NSCLC | HOP-92 NSCLC | HS 578T breast | HT29 colon | IGROV1 ovarian | K-562 leukemia | KM12 colon | LOX IMVI melanoma | M14 melanoma | MALME-3M melanoma | MCF7 breast | MDA-MB-231 breast | MDA-MB-435 | MDA-N | MOLT-4 leukemia | NCI-H226 lung | NCI-H23 lung | NCI-H460 lung | NCI-H522 lung | NCI/ADR-RES ovarian | OVCAR-3 ovarian | OVCAR-4 ovarian | OVCAR-5 ovarian | OVCAR-8 ovarian | PC-3 prostate | RPMI-8226 leukemia | RXF 393 renal | SF-268 CNS | SF-295 CNS | SK-MEL-28 melanoma | SK-MEL-5 melanoma | SK-OV-3 ovarian | SN12C renal | SNB-19 CNS | SNB-75 CNS | SW-620 colon | T-47D breast | TK-10 renal | U251 CNS | UACC-257 melanoma | UACC-62 melanoma | UO-31 renal

COc1cc(Br)cc2c1O[C@H]1C(=O)CC3CC21CCN3C (stereo partly specified)
63.4 µM: RPMI-8226 leukemia
68.2 µM: NCI-H23 lung
61.6 µM: MOLT-4 leukemia
42.7 µM: HL-60(TB) leukemia
46.3 µM: K-562 leukemia
43.9 µM: CCRF-CEM leukemia
> 100 µM: 786-0 renal | A498 renal | A549 NSCLC | ACHN renal | BT-549 breast | CAKI-1 renal | COLO 205 colon | EKVX NSCLC | HCC-2998 colon | HCT-116 colon | HCT-15 colon | HOP-62 NSCLC | HS 578T breast | HT29 colon | IGROV1 ovarian | KM12 colon | LOX IMVI melanoma | M14 melanoma | MALME-3M melanoma | MCF7 breast | MDA-MB-435 | MDA-N | NCI/ADR-RES ovarian | OVCAR-3 ovarian | OVCAR-5 ovarian | PC-3 prostate | SF-268 CNS | SF-295 CNS | SF-539 CNS | SK-MEL-2 melanoma | SK-MEL-28 melanoma | SK-MEL-5 melanoma | SK-OV-3 ovarian | SNB-19 CNS | SR leukemia | SW-620 colon | UACC-257 melanoma | UACC-62 melanoma | UO-31 renal
74 µM: T-47D breast
71.7 µM: OVCAR-8 ovarian

C=CC(C)(C)c1c(OC)oc2ccc(OC)c(C)c2c1=O
> 100 µM: 786-0 renal | A498 renal | A549 NSCLC | ACHN renal | BT-549 breast | CAKI-1 renal | CCRF-CEM leukemia | COLO 205 colon | DU-145 prostate | EKVX NSCLC | HCC-2998 colon | HCT-116 colon | HCT-15 colon | HL-60(TB) leukemia | HOP-62 NSCLC | HS 578T breast | HT29 colon | IGROV1 ovarian | K-562 leukemia | KM12 colon | LOX IMVI melanoma | M14 melanoma | MALME-3M melanoma | MCF7 breast | MDA-MB-231 breast | MDA-MB-435 | MDA-N | MOLT-4 leukemia | NCI-H226 lung | NCI-H23 lung | NCI-H460 lung | NCI-H522 lung | NCI/ADR-RES ovarian | OVCAR-3 ovarian | OVCAR-5 ovarian | OVCAR-8 ovarian | PC-3 prostate | RPMI-8226 leukemia | SF-268 CNS | SF-295 CNS | SF-539 CNS | SK-MEL-2 melanoma | SK-MEL-28 melanoma | SK-MEL-5 melanoma | SK-OV-3 ovarian | SN12C renal | SNB-19 CNS | SNB-75 CNS | SR leukemia | SW-620 colon | T-47D breast | TK-10 renal | U251 CNS | UACC-257 melanoma | UACC-62 melanoma | UO-31 renal

CN1CCC2(CC1)C(=O)N(NC(N)=O)C(=O)C2c1ccccc1 (stereo unspecified)
> 100 µM: 786-0 renal | A549 NSCLC | ACHN renal | BT-549 breast | CAKI-1 renal | CCRF-CEM leukemia | COLO 205 colon | DU-145 prostate | EKVX NSCLC | HCC-2998 colon | HCT-116 colon | HCT-15 colon | HL-60(TB) leukemia | HOP-62 NSCLC | HS 578T breast | HT29 colon | IGROV1 ovarian | K-562 leukemia | KM12 colon | LOX IMVI melanoma | M14 melanoma | MALME-3M melanoma | MDA-MB-231 breast | MDA-MB-435 | MDA-N | MOLT-4 leukemia | NCI-H226 lung | NCI-H23 lung | NCI-H460 lung | NCI/ADR-RES ovarian | OVCAR-3 ovarian | OVCAR-4 ovarian | OVCAR-5 ovarian | OVCAR-8 ovarian | PC-3 prostate | RPMI-8226 leukemia | RXF 393 renal | SF-268 CNS | SF-295 CNS | SF-539 CNS | SK-MEL-2 melanoma | SK-MEL-28 melanoma | SK-MEL-5 melanoma | SK-OV-3 ovarian | SN12C renal | SNB-19 CNS | SNB-75 CNS | SW-620 colon | T-47D breast | TK-10 renal | U251 CNS | UACC-257 melanoma | UACC-62 melanoma | UO-31 renal
